Measured values reported in PMC12844208, “Screening for Peptides to Bind and Functionally Inhibit SARS-CoV-2 Fusion Peptide Using Mirrored Combinatorial Phage Display and Human Proteomic Phage Display” (Molecules, 2026).
Entries after “also recorded” stand apart in the source; their conditions may differ. Ends that are not written are not given here.

Tests used:
[1] = system: D-FP12_biotin (SARS-CoV-2 spike fusion peptide synthesised as a D-peptide); assay type: binding
[2] = system: SARS-CoV-2 infection of Vero-E6/TMPRSS2 cells; assay: microbe, parasite or virus in culture; assay type: cell-based
[3] = system: anti-Borrelia burgdorferi immune sera; settings: occurrences in the anti-Borrelia burgdorferi immune sera NEB PhD7 screening dataset; cited from earlier work
Description: Table 2 Ten enriched PhD7-mer L-peptides tested in antiviral assays as D-peptides. | column: Occurrence in an Unrelated Screen

FP = assay: Preliminary screen of FP versus a pan-coronaviral phage display library; parameters: species or system SARS-CoV-2; settings: lack of binding to homologous regions of other coronaviruses placed the finding in doubt
Procedure: Proteomic phage display of peptide regions of proteins is also possible for viral as well as host proteins, and a preliminary screen of FP versus a pan-coronaviral phage display library of regions of coronaviral proteins was carried out following the methods previously outlined, which only identified a single peptide, despite a large amount of sequencing data obtained. This 39mer […] peptide was derived from the nsp3 (protease-encoding) protein of coronavirus 229E comprising the last four residues of the loop between Y2 and Y3 regions and the first 35 residues of the Y3 region. Y3 plays a role in double-membrane vesicle formation, but the lack of binding to homologous regions of other coronaviruses in the library placed the finding in doubt.

Compound: SLTGTRF
- Read Count [1]: 11,170

Compound: LEVYYET
- Read Count [1]: 3570

Compound: RDHYMMF
- Read Count [1]: 7135

Compound: ETSTMYP
- effect on SARS-CoV-2 infection (number of infected cells compared to vehicle controls) [2]: exception
- Read Count [1]: 3552

Compound: RRRRRRRRGPDRNFRLSEHRQALA-NH2 [OTUD1-derived peptide]
- inhibition of SARS-CoV-2 infection of Vero-E6/TMPRSS2 cells (in words) [2]: no evidence for any marked impact; also recorded: failed to inhibit viral infection

Compound: LTSLPRN
- Read Count [1]: 4284

Compound: WSRGYTG
- Read Count [1]: 3676

Compound: WSLGYTG
- Occurrence in an Unrelated Screen [3]: 4
- Read Count [1]: 6,280,489

Compound: HFARHLA
- Read Count [1]: 7063

Compound: NTWPYKP
- Occurrence in an Unrelated Screen [3]: 1
- Read Count [1]: 264,257

Compound: LSTLSVDFNGVLHKAYIDVLRNSFGKDLNANMSLAECKR
- peptide identified as binding FP in the pan-coronaviral library (FP): identified

Compound: CCC(CC)COC(=O)[C@H](C)N[P@](=O)(OC[C@H]1O[C@@](C#N)(c2ccc3c(N)ncnn23)[C@H](O)[C@@H]1O)Oc1ccccc1 [Remdesivir, reference compound]
- inhibition of infection (in words) [2]: strongly inhibited
- inhibition at 5 µM ([2]; Severe acute respiratory syndrome coronavirus 2, VeroE6/TMPRSS2, read-out: inhibition of infection): 95%

Compound: HDTTLIT
- Read Count [1]: 169,773
